Measured values: PubChem BioAssay (NCI)
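Interpolation was linear, between the two tested concentrations surrounding the appropriate level; five concentrations were tested over 48 hours in 96-well plates. TGI denotes the concentration required for complete inhibition of growth.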

What was measured:
Assay in all cases: DTP human tumour cell line panel, 48 h
[1] = system: NCI-H522 lung
[2] = system: KM12 colon
[3] = system: SNB-19 CNS
[4] = system: K-562 leukemia
[5] = system: UO-31 renal
[6] = system: SF-295 CNS
[7] = system: MDA-N
[8] = system: MCF7 breast
[9] = system: CAKI-1 renal
[10] = system: OVCAR-3 ovarian
[11] = system: SK-MEL-2 melanoma
[12] = system: PC-3 prostate
[13] = system: SF-268 CNS
[14] = system: HT29 colon
[15] = system: NCI-H460 lung
[16] = system: SR leukemia
[17] = system: DU-145 prostate
[18] = system: SW-620 colon

Measured: TGI

CCOP(=O)(OCC)C(Nc1cccc([N+](=O)[O-])c1)c1ccccc1 (configuration not stated)
> 100 µM: [1] | [2] | [3] | [4] | [5] | [6] | [7] | [8] | [9] | [10] | [11] | [12] | [13] | [14] | [15] | [16] | [17]

Cc1cc(C)nc(NC(=S)Nc2ccccc2Cl)c1
> 100 µM: [1] | [18] | [2] | [3] | [4] | [5] | [6] | [7] | [8] | [9] | [10] | [11] | [12] | [13] | [14] | [15] | [16] | [17]

O=C(Cn1cc(F)c(=O)[nH]c1=O)C12CC3CC(CC(C3)C1)C2
> 100 µM: [1] | [18] | [2] | [3] | [4] | [5] | [6] | [7] | [8] | [9] | [10] | [11] | [12] | [13] | [14] | [15] | [16] | [17]

CCO[C@@H]1CCC(S(=O)c2ccc(C)cc2)=CO1 (some centres not stated)
> 100 µM: [1] | [18] | [2] | [3] | [4] | [5] | [6] | [7] | [8] | [9] | [10] | [11] | [12] | [13] | [14] | [15] | [16] | [17]

OCC1OC(Oc2cc(O)cc(/C=C/c3ccc(O)cc3)c2)C(O)C(O)C1O (configuration not stated)
> 100 µM: [1] | [18] | [2] | [3] | [4] | [5] | [6] | [7] | [8] | [9] | [10] | [11] | [12] | [14] | [15] | [16] | [17]

CCN(CC)CCC1CCCCN1CC(=O)N1c2ccccc2NC(=O)c2ccccc21 (configuration not stated)
> 100 µM: [1] | [2] | [3] | [4] | [5] | [6] | [7] | [8] | [9] | [10] | [11] | [12] | [13] | [14] | [15] | [16] | [17]

COc1ccc(N=Nc2ccc3oc(=O)c(C(=O)Nc4ccccc4)cc3c2)cc1
> 10 µM: [1] | [18] | [2] | [3] | [5] | [6] | [7] | [8] | [9] | [10] | [11] | [12] | [13] | [14] | [15] | [16] | [17]

COc1cc(/C=C/C(=O)OC2C(O)C3CC(OC(=O)c4cc(OC)c(OC)c(OC)c4)CC2N3C)cc(OC)c1OC (configuration not stated)
> 50 µM: [1] | [18] | [2] | [4] | [5] | [6] | [7] | [8] | [9] | [10] | [11] | [12] | [13] | [14] | [15] | [17]
33.3 µM: [16]
39.9 µM: [3]

C=C1CCC2CC1[C@@H](C(=O)c1c[nH]c3ccccc13)NC2(C)C (some centres not stated)
> 37.5 µM: [1] | [18] | [2] | [4] | [5] | [6] | [7] | [8] | [9] | [10] | [11] | [12] | [13] | [14] | [15] | [16] | [17]

CN=CN(C)c1c2ccccc2nc2ccccc12
28.1 µM: [5]
> 100 µM: [1] | [18] | [2] | [3] | [4] | [6] | [7] | [8] | [9] | [10] | [11] | [12] | [13] | [14] | [15] | [16] | [17]

CC(O)(/C=C/c1ccccc1)P(=O)(O)c1ccccc1 (configuration not stated)
> 100 µM: [1] | [18] | [2] | [3] | [4] | [6] | [7] | [8] | [9] | [10] | [11] | [12] | [13] | [14] | [15] | [16] | [17]
